Converted amounts (≈) assume the structure as drawn. Values belong to the molecule of their own block, whether it stands above or below them. Where a SMILES comes first, the peptide text is derived from it. [ ]: non-standard residue; d: D form. pGlu = O=C1CC[C@@H](C(=O)O)N1
How the values were obtained:
[1] = test system: LNCaP; experiment: cells; type: cell-based, human; details: 48 h; for Cytotoxicity (IC50) LNCaP: human
Protocol: (§1) To evaluate anticancer activities of the produced peptides on various types of cancer cells, MTT analysis was performed. Human prostate cancer cell lines (LNCaP, PC3, and DU145), human breast cancer cell lines (MDA-MB-231 and MCF-7), lung cancer cell line (A549), and ovarian cancer cell line (SKOV3) were cultured in RPMI media supplemented with 1% penicillin/streptomycin and 1% fetal bovine serum (all from Life Technologies, Grand Island, NY). The cells were seeded in 96-well plates containing 100 μL of growth media for 24 h. The media were removed, and then 100 μL of the peptide (solvent DPBS) at each concentration was added to each well and incubated at 37° C. for 48 h. After incubation for 48 h, 100 μL of MTT reagent was added to each well. The cells were incubated at 37° C. for 4 h, and then the supernatant was removed. Formazan crystals were dissolved in 100 μL of DMSO with gentle stirring at 37° C. for 10 min. The absorbance per well was measured at 540 nm using a VERSA max microplate reader (Molecular Devices Corp.).

[2] = test system: MCF-7; experiment: cells; type: cell-based, human; details: for Cytotoxicity (IC50) MCF-7: human, 48 h
Protocol: as §1

[3] = test system: A549; experiment: MTT cytotoxicity on various cancer cells (Table 1); type: cell-based, human; details: for Cytotoxicity (IC50) A549: human, 48 h
Protocol: as §1

[4] = test system: PC3; experiment: MTT cytotoxicity on various cancer cells (Table 1); type: cell-based, human; details: for Cytotoxicity (IC50) PC3: human, 48 h
Protocol: as §1

[5] = test system: SKOV3; experiment: MTT cytotoxicity on various cancer cells (Table 1); type: cell-based, human; details: for Cytotoxicity (IC50) SKOV3: human, 48 h
Protocol: as §1

[6] = test system: DU145; experiment: MTT cytotoxicity on various cancer cells (Table 1); type: cell-based, human; details: for Cytotoxicity (IC50) DU145: human, 48 h
Protocol: as §1

[7] = molecular target: T1, gonadotropin-releasing hormone (GnRH) receptor (UniProt P30968 1-328, limits assumed); experiment: cell-based or functional assay
T1 sequence (looked up): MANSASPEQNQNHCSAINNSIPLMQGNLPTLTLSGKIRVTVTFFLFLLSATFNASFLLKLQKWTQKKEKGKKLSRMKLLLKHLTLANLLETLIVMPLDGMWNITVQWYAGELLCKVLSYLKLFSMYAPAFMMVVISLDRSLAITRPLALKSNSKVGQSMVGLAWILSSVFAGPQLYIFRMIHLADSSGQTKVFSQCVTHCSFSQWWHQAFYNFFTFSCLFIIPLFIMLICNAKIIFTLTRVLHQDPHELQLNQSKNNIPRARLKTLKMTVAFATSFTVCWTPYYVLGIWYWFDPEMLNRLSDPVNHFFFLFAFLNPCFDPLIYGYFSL

Molecule: CC(C)C[C@H](NC(=O)[C@H](C)NC(=O)[C@@H]1CCCN1C(=O)[C@H](CCCNC(=N)N)NC(=O)[C@H](C)NC(=O)[C@@H](N)CCC(=O)O)C(=O)N[C@@H](CC(C)C)C(=O)N[C@@H](CO)C(=O)N[C@H](C(=O)N[C@@H](CCCNC(=N)N)C(=O)N[C@@H](CC(C)C)C(=O)N[C@@H](CCCNC(=N)N)C(=O)N1CCC[C@H]1C(=O)O)[C@@H](C)O [HS1001] (H-EARPALLSTRLRP-OH; N-terminus and C-terminus assumed)
Cytotoxicity (IC50) LNCaP [1]: 6.55 ± 0.96 µg/mL
Cytotoxicity (IC50) MCF-7 [2]: 48.26 ± 1.23 µg/mL
Cytotoxicity (IC50) A549 [3]: 4.18 ± 0.15 µg/mL
Cytotoxicity (IC50) PC3 [4]: 8.05 ± 1.58 µg/mL
Cytotoxicity (IC50) SKOV3 [5]: 6.14 ± 0.79 µg/mL
Cytotoxicity (IC50) DU145 [6]: 7.82 ± 0.37 µg/mL

Molecule: CCNC(=O)[C@@H]1CCCN1C(=O)[C@@H](NC(=O)[C@H](Cc1ccccc1)NC(=O)[C@H](CCCNC(=N)N)NC(=O)[C@@H]1CCCN1C(=O)[C@H](C)NC(=O)[C@H](Cc1ccc(O)cc1)NC(=O)[C@H](CO)NC(=O)[C@H](Cc1c[nH]c2ccccc12)NC(=O)[C@H](Cc1c[nH]cn1)NC(=O)[C@@H]1CCC(=O)N1)[C@@H](C)CC [HS1003] ([pGlu]HWSYAPRFIP-NHEt; C-terminus assumed)
Cytotoxicity (IC50) LNCaP [1]: 10.9 ± 0.48 µg/mL
Cytotoxicity (IC50) MCF-7 [2]: 47.28 ± 2.05 µg/mL
Cytotoxicity (IC50) A549 [3]: 9.48 ± 0.08 µg/mL
Cytotoxicity (IC50) PC3 [4]: 24.05 ± 1.13 µg/mL
Cytotoxicity (IC50) SKOV3 [5]: 5.79 ± 0.38 µg/mL
Cytotoxicity (IC50) DU145 [6]: 12.37 ± 0.31 µg/mL

Molecule: CCNC(=O)[C@@H]1CCCN1C(=O)[C@@H](NC(=O)[C@H](Cc1ccccc1)NC(=O)[C@H](C)NC(=O)[C@H](CC(C)C)NC(=O)[C@H](CCCNC(=N)N)NC(=O)[C@H](Cc1ccc(O)cc1)NC(=O)[C@H](CO)NC(=O)[C@H](Cc1c[nH]c2ccccc12)NC(=O)[C@H](Cc1c[nH]cn1)NC(=O)[C@@H]1CCC(=O)N1)[C@@H](C)CC [HS1004] ([pGlu]HWSYRLAFIP-NHEt; C-terminus assumed)
Cytotoxicity (IC50) LNCaP [1]: 9.97 ± 0.85 µg/mL
Cytotoxicity (IC50) MCF-7 [2]: 37.47 ± 1.58 µg/mL
Cytotoxicity (IC50) PC3 [4]: 16.49 ± 0.74 µg/mL
Cytotoxicity (IC50) SKOV3 [5]: 5.19 ± 0.82 µg/mL
Cytotoxicity (IC50) DU145 [6]: 17.54 ± 0.74 µg/mL

Molecule: CC(C)C[C@H](NC(=O)[C@H](C)NC(=O)[C@@H]1CCCN1C(=O)[C@H](CCCNC(=N)N)NC(=O)[C@H](C)NC(=O)[C@@H](N)CCC(=O)O)C(=O)N[C@@H](CC(C)C)C(=O)N[C@@H](CO)C(=O)N[C@H](C(=O)N[C@@H](CCCNC(=N)N)C(=O)N[C@@H](Cc1ccccc1)C(=O)N[C@@H](CCCNC(=N)N)C(=O)N1CCC[C@H]1C(=O)N[C@@H](CCCCN)C(=O)O)[C@@H](C)O [HS1005] (H-EARPALLSTRFRPK-OH; N-terminus and C-terminus assumed)
Cytotoxicity (IC50) LNCaP [1]: 11.23 ± 1.01 µg/mL
Cytotoxicity (IC50) MCF-7 [2]: 44.15 ± 2.63 µg/mL
Cytotoxicity (IC50) A549 [3]: 14.75 ± 0.83 µg/mL
Cytotoxicity (IC50) PC3 [4]: 13.31 ± 1.05 µg/mL
Cytotoxicity (IC50) SKOV3 [5]: 14.08 ± 1.04 µg/mL
Cytotoxicity (IC50) DU145 [6]: 16.17 ± 1.28 µg/mL

Molecule: CC(C)C[C@H](NC(=O)CNC(=O)[C@@H](NC(=O)[C@H](CO)NC(=O)[C@H](CC(C)C)NC(=O)[C@H](CC(C)C)NC(=O)[C@H](C)NC(=O)[C@@H]1CCCN1C(=O)[C@H](CCCNC(=N)N)NC(=O)[C@H](C)NC(=O)[C@@H](N)CCC(=O)O)[C@@H](C)O)C(=O)N[C@@H](CCCNC(=N)N)C(=O)N1CCC[C@H]1C(=O)N[C@@H](CCCCN)C(=O)O [HS1006] (H-EARPALLSTGLRPK-OH; N-terminus and C-terminus assumed)
Cytotoxicity (IC50) LNCaP [1]: 14.17 ± 0.47 µg/mL
Cytotoxicity (IC50) MCF-7 [2]: 55.24 ± 2.41 µg/mL
Cytotoxicity (IC50) A549 [3]: 10.68 ± 0.25 µg/mL
Cytotoxicity (IC50) PC3 [4]: 15.2 ± 1.12 µg/mL
Cytotoxicity (IC50) SKOV3 [5]: 13.91 ± 1.17 µg/mL
Cytotoxicity (IC50) DU145 [6]: 19.46 ± 0.26 µg/mL

Molecule: CC(=O)O[C@H]1C(=O)[C@@]2(C)[C@H]([C@H](OC(=O)c3ccccc3)[C@]3(O)C[C@H](OC(=O)[C@H](O)[C@@H](NC(=O)c4ccccc4)c4ccccc4)C(C)=C1C3(C)C)[C@]1(OC(C)=O)CO[C@@H]1C[C@@H]2O [PTX, Paclitaxel, reference compound]
IC50 ([1]; Homo sapiens, LNCaP, read-out: Cytotoxicity (IC50) LNCaP): 0.81 ± 0.09 µg/mL (≈ 0.949 µM)
IC50 ([2]; Homo sapiens, MCF7, 48 h, read-out: Cytotoxicity (IC50) MCF-7): 9.27 ± 1.12 µg/mL (≈ 10.9 µM)
IC50 ([3]; Homo sapiens, A549, 48 h, read-out: Cytotoxicity (IC50) A549): 3.62 ± 0.04 µg/mL (≈ 4.24 µM)
IC50 ([4]; Homo sapiens, PC-3, 48 h, read-out: Cytotoxicity (IC50) PC3): 59.4 ± 3.21 µg/mL (≈ 69.6 µM)
IC50 ([5]; Homo sapiens, SK-OV-3, 48 h, read-out: Cytotoxicity (IC50) SKOV3): 5.41 ± 0.19 µg/mL (≈ 6.34 µM)
IC50 ([6]; Homo sapiens, DU-145, 48 h, read-out: Cytotoxicity (IC50) DU145): 0.73 ± 0.04 µg/mL (≈ 0.855 µM)

CRE-luciferase activity in HEK293-GnRHR cells [7]: 2 fold
B1: peptide HS1002 (peptide)
peptide: [pGlu]HWSYRLRFIP-NHEt
SMILES: CCNC(=O)[C@@H]1CCCN1C(=O)[C@@H](NC(=O)[C@H](Cc1ccccc1)NC(=O)[C@H](CCCNC(=N)N)NC(=O)[C@H](CC(C)C)NC(=O)[C@H](CCCNC(=N)N)NC(=O)[C@H](Cc1ccc(O)cc1)NC(=O)[C@H](CO)NC(=O)[C@H](Cc1c[nH]c2ccccc12)NC(=O)[C@H](Cc1c[nH]cn1)NC(=O)[C@@H]1CCC(=O)N1)[C@@H](C)CC

From patent US20240247031A1, “COMPOSITION FOR TREATING CANCER CONTAINING TELOMERASE-TARGETING GNRH ANTAGONIST-DERIVED PEPTIDE HS1002” (Research & Business Foundation Sungkyunkwan University, priority 2023, published 2024)
